This note sets out measurements from patent publication US10233193B2, “Fused tricyclic heterocyclic compounds useful for treating HIV infection” (MERCK SHARP & DOHME CORP., priority 2015, dated 2019).

Read-outs that look alike come from different tables or passages of the source.

This assay has as its system HIV-1 (NL4-3 strain). The assay is described as follows: Assay for inhibition of HIV replication (MT4-gag-GFP reporter cell line, wild type cell assay, Viking). In kind it is cell-based. Particulars: IP or IC50 from 4-parameter dose response curve. Here is the method:
This assay is a kinetic assay that employs a reporter cell line (MT4-gag-GFP) to quantify the number of new cells infected in each round of replication.
MT4-GFP cells (250,000 cells/ml) were bulk-infected with HIV-1 (NL4-3 strain) at low multiplicity of infection (MOI) in RPMI+10% FBS for 24 hours. Cells were then washed once in RPMI+10% FBS and resuspended in RPMI+0% or 10% or 100% normal human serum (NHS). Test compounds were serial-diluted in DMSO on ECHO. The infected MT4-GFP cells were added to a 384-well poly-D-lysine coated black plate with clear bottom in which the diluted test compounds were placed. The cells were seeded at 8,000 cells per well and the final DMSO concentration was 0.4%. The infected cells (Green GFP cells) were quantified at both 24 and 48 hours post incubation using Acumen eX3. Viral reproductive ratio (R0) was determined using the number of infected cells at 48 hours divided by the number of infected cells at 24 hours. Percent viral growth inhibition was calculated by [1−(R−Rtripledrug)/(RDMSO−Rtripledrug)]*100. Compound potency IP or IC50 was determined by a 4-parameter dose response curve analysis.
Illustrative compounds of the present invention were tested using this assay protocol and results are presented below in Table A.

With `CN1CC[C@@H]2C1C(C)(C)C(=O)c1c(O)c(=O)c(C(=O)NCc3ccc(F)cc3F)cn12` (some centres unmarked) [Compound 9], the IC50 reads like this: (infected MT4-GFP cells in 100% normal human serum, read-out: WILD TYPE CELL ASSAY Viking IP (100% NHS)) 174 nM; (infected MT4-GFP cells in RPMI + 0% normal human serum, read-out: WILD TYPE CELL ASSAY Viking IP (0% NHS)) 5.3 nM.
